Measurements published in patent publication US20230095618A1, “OIL-IN-WATER EMULSION COMPRISING A SOLID LIPID MATERIAL” (priority 2020, published 2023).

System: yellow fever mosquito, Aedes aegypti Rockefeller strain
Assay: Repulsive effect on mosquitoes: number of landings on a treated warm glass plate in a cage
Assay type: in vivo
Conditions: reference actives diluted at 12.5% in ethanol; for number of mosquito landings: glass plate at 34° C., cage with 30 unfed A. aegypti females
Protocol: Controlling efficacy was tested against the yellow fever mosquito, Aedes aegypti Rockefeller strain. […] Observations of controlling efficacy were made on host-seeking females of uniform age, 5 to 12 days post-eclosion from pupae. Tested hungry females had access to 10% sugar solution but were not blood-fed. The testing protocol was adapted from the method described in Krober et al. (2010; doi: 10.2987/10-6044.1). A controlled amount […] of stimulus was deposited in the center of a sandblasted glass plate (60 mm diam) and maintained at 34° C. The glass plate was then placed in a polycarbonate cage (200×260×180 mm) containing 30 A. aegypti unfed female mosquitoes. The number of landings of the mosquitoes as a function of time was monitored using a camera and allowed to evaluate the repulsive effect of the stimulus. Stimuli tested were water, ethanol or diluted insect repellent active as controls and samples according to example 1. When only water is applied onto the glass surface, the average number of mosquitoes landing is about 63. The reference sample consisting of pure IR3535® diluted at 12.5% in ethanol reduces the number of landing from about 63 landings in the control test to about 12 landings 2 hrs after application (81% reduction), 15 after 4 hrs (−76%) and 30 after 6 hrs (−52%). Emulsion 1 according to example 1 reduces the number of landings from about 63 landings in the control test to about 12 landings 2 hrs after application (81% reduction), 4 after 4 hrs (−93%) and 3 after 6 hrs (−95%). […] Emulsion 2 according to example 1 reduces the number of landings from about 63 landings in the control test to about 8 landings 2 hrs after application (87% reduction), 2 after 4 hrs (−97%) and 4 after 6 hrs (−93%).

## CCN(CC)C(=O)c1cccc(C)c1 [DEET, N,N-diethyl-3-methylbenzamide]
2 hrs after application
  number of mosquito landings: about 15 landings
  reduction of the number of landings versus water control: 72%
After 4 hrs
  number of mosquito landings: ~10 landings
  change of the number of landings versus water control (given as negative %): −81%
After 6 hrs
  number of mosquito landings: ~19 landings
  change of the number of landings versus water control (given as negative %): −65%

## CCCCN(CCC(=O)OCC)C(C)=O [IR3535®, ethyl 3-(acetyl(butyl)amino)propanoate]
2 hrs after application
  number of mosquito landings: about 12 landings
  reduction of the number of landings versus water control: 81%
After 4 hrs
  number of mosquito landings: ~15 landings
  change of the number of landings versus water control (given as negative %): −76%
After 6 hrs
  number of mosquito landings: ~30 landings
  change of the number of landings versus water control (given as negative %): −52%
